These results are taken from article PMC11943950, “Characterization of Flexusin A, a Novel Circular Bacteriocin Produced by Marine Bacterium Bacillus flexus R29-2” (Marine Drugs, 2025).

≈ marks a conversion by molar mass, not a printed value. Where two headings read alike, the source gives them in different places.

One data set deals with S. aureus ATCC 6538. Put plainly: microbe, parasite or virus in culture. Format: cell-based, Staphylococcus aureus. Here is the method: (§1) An array of indicator strains (S. aureus ATCC 6538, E. faecalis CICC 21605, E. faecium CICC 10004 and L. monocytogenes ATCC 19115) were used to determine the MIC of flexusin A by the methods, as reported. […] The purified powder of flexusin A was reconstituted at 256 μg/mL to serve as the stock solution. It was then used for the antibacterial activity assay over a range of 256, 128, 64, 32, 16, 8, 4, 2, 1, 0.5, 0.25, and 0.125 μg/mL. The protein concentration of the flexusin A stock solution was determined by the BCA method (BCA Protein Assay Kit, Sangon Biotech)”. Water was used as a negative control, whereas ampicillin (Solarbio, Beijing, China) was used as positive control. All assays were performed in triplicate. MIC was defined as the lowest concentration of flexusin A that inhibited indicator growth, as no visible microbial growth was observed.

For data set [1] the following is noted: pH range from 2.0 to 10.0 (method: pH 2.0-9.0), 25 °C for 2 h; read-out qualitative spot-on-lawn bioassay.
The conditions of data set [2]: treated for 30 min from 20 to 100 °C (method: 30-100 °C); read-out qualitative spot-on-lawn bioassay.
Data set [3] deals with L. monocytogenes ATCC 19115. Put plainly: microbe, parasite or virus in culture. The data set is classed as cell-based, Listeria monocytogenes. As for the experimental part:
as §1

For a further data set, the target named is chymotrypsin (Bos taurus, UniProt P00766). As to conditions: chymotrypsin 1 mg/mL, 25 mM phosphate buffer pH 7.0, 37 °C for 4 h; residual antimicrobial activity, spot-on-lawn bioassay. Here is the method: (§2) The HPLC purified bacteriocin samples were made readily soluble in neutral water, and the stock solution was then tested for sensitivity to heat, pH changes, and degradative enzymes. The qualitative spot-on-lawn bioassay was used to monitor changes in antimicrobial potency after treatments mentioned. For thermal stability testing, aliquots of the HPLC-purified peptide samples were exposed to 30 °C, 40 °C, 50 °C, 60 °C, 70 °C, 80 °C, 90 °C, and 100 °C for 30 min, respectively. For the pH stability test, aliquots of the stock solutions were adjusted to pH 2.0, 3.0, 4.0, 5.0, 6.0, 7.0, 8.0, and 9.0, followed by incubation at 25 °C for 2 h.
(§3) Sensitivity to various degradative enzymes was determined using trypsin, papain, pepsin, chymotrypsin, and protease K at a final concentration of 1 mg/mL, respectively. All enzymes were purchased from Sigma, and their solutions were prepared in 25 mM phosphate buffer, pH 7.0 (pepsin, pH = 2.0). Solutions of the antimicrobial peptide were prepared in the same sterile buffer. After mixing the enzymatic reaction solutions were incubated at 37 °C for 4 h before residual antimicrobial activity measurement.

Another data set relates to trypsin. As to conditions: trypsin 1 mg/mL, 25 mM phosphate buffer pH 7.0, 37 °C for 4 h; residual antimicrobial activity, spot-on-lawn bioassay. Here is the method:
as §2, §3

A further data set concerns the target pepsin (Sus scrofa, UniProt P00791). As to conditions: pepsin 1 mg/mL, 25 mM phosphate buffer pH 2.0, 37 °C for 4 h; residual antimicrobial activity, spot-on-lawn bioassay. As for the experimental part: as §2, §3
The target in the next data set is protease K (Parengyodontium album, UniProt P06873). As to conditions: protease K 1 mg/mL, 25 mM phosphate buffer pH 7.0, 37 °C for 4 h; residual antimicrobial activity, spot-on-lawn bioassay. As for the experimental part:
as §2, §3

The conditions of data set [4]: HPLC purified sample, neutral water; qualitative. Here is the method:
as §2

In another data set the test system is E. faecalis CICC 21605. In words: microbe, parasite or virus in culture. Format: cell-based, Enterococcus faecalis. As for the experimental part: as §1
Another data set relates to E. faecium CICC 10004. Put plainly: MIC by broth microdilution. Format: cell-based. The following applies: Enterococcus faecium, CICC10004, 96-well, approximately 1 × 10^6 CFU/mL, 37 °C, 24 h, no visible growth, triplicate. Here is the method:
as §1
(In broth dilution the organism is exposed to a series of concentrations in liquid medium.)

pepsin, sequence (P00791 60-385): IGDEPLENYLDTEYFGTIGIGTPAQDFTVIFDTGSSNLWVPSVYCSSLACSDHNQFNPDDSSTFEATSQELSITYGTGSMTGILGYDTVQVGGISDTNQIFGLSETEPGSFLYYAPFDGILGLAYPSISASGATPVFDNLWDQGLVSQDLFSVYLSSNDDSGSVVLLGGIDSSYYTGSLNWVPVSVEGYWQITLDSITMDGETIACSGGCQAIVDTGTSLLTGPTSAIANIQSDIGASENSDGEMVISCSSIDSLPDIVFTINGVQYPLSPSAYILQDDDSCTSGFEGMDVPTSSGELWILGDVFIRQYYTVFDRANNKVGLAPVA
protease K, sequence (P06873 106-384): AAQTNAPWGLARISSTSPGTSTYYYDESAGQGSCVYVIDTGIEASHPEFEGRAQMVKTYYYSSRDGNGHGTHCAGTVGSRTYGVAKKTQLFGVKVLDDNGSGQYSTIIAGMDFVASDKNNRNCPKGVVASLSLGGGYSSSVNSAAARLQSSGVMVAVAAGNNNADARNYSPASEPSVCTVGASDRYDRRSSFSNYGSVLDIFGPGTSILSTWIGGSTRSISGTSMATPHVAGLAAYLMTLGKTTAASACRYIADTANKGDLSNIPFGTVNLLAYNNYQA

As for “cyclo(AGALGISEYWANVIVTAIEAGSTVLALISMFASFGLTSALILTAKSLLKKGAKKTAVAYI) [flexusin A]”, the MIC stood at 1 mg/L with S. aureus ATCC 6538 (ATCC 6538, 24 h); 2 mg/L in [3] (ATCC 19115, 24 h); 16 mg/L against E. faecalis CICC 21605 (CICC 21605, 24 h). For the same molecule, in [1], the “pH stability (remaining activity)” value is listed as “stable”. Further, the “Thermal stability (remaining activity)” value in data set [2] is recorded as “decent thermal stability”. Also, the “Resistance to chymotrypsin (remaining activity)” value on chymotrypsin is “sensitive”. Moreover, the “Resistance to trypsin (remaining activity)” value in the data set with trypsin is recorded as “tolerant”. The “Resistance to pepsin (remaining activity)” value on pepsin is “tolerant”. The “Resistance to protease K (remaining activity)” value at protease K is reported as “sensitive”. The Solubility in water result in [4] is “water soluble”.
Turning to `CC1(C)S[C@@H]2[C@H](NC(=O)[C@H](N)c3ccccc3)C(=O)N2[C@H]1C(=O)O` [Amp, ampicillin, reference compound], the MIC was 0.4 mg/L (≈ 1.14 µM) with S. aureus ATCC 6538 (Staphylococcus aureus, ATCC6538, S. aureus ATCC 6538, broth microdilution, 96-well, approximately 1 × 10^6 CFU/mL, 37 °C, 24 h, no visible growth, triplicate, read-out: MIC); 0.0625 mg/L (≈ 0.179 µM) in data set [3] (Listeria monocytogenes, ATCC19115, L. monocytogenes ATCC 19115, broth microdilution, 96-well, approximately 1 × 10^6 CFU/mL, 37 °C, 24 h, no visible growth, triplicate, read-out: MIC); 1.6 mg/L (≈ 4.58 µM) in the data set on E. faecium CICC 10004; over 51.2 mg/L in the data set with E. faecalis CICC 21605 (Enterococcus faecalis, CICC21605, E. faecalis CICC 21605, broth microdilution, 96-well, approximately 1 × 10^6 CFU/mL, 37 °C, 24 h, no visible growth, triplicate, read-out: MIC).
